pIC50: −log10 of the molar value. Converted amounts (≈) assume the structure as drawn. The source made the active and inactive calls. The calls are words filed in the database; no cut-off is given here.
Key:
[1] = Dose normalized Cmax in Sprague-Dawley rat at 100 mg/kg, po measured upto 24 hrs by LC-MS/MS analysis; format: ADME, organism-based; details: in vivo
[2] = Half life in beagle dog at 0.3 mg/kg,po or 0.1 mg/kg,iv measured upto 24 hrs by LC-MS/MS analysis; format: ADME, organism-based, Canis lupus familiaris; details: in vivo
[3] = Inhibition of wild type PI3K in human HCC1806 cells assessed as reduction in phosphorylation of AKT at Ser473 residue by Western blot analysis; format: cell-based
[4] = Solubility of compound in FaSSIF at pH 6.5 measured upto 120 mins by HPLC analysis; format: physicochemical
Tubulin (Sus scrofa) = Tubulin (Sus scrofa) (UniProt P02554+P02550); assay: Inhibition of porcine tubulin polymerization assessed as inhibition of microtubule polymerization at 15 to 30 uM measured after 1 hr; format: protein assay; details: dose 15-30 µM
[5] = Drug concentration in OF1 mouse blood at 1 mg/kg, iv measured at 5 mins post dose by LC-MS/MS analysis; format: ADME, organism-based; details: whole blood, read-out: Ct
[6] = Tmax in Sprague-Dawley rat at 100 mg/kg, po measured upto 24 hrs by LC-MS/MS analysis; format: ADME, organism-based; details: in vivo
[7] = Effect on plasma insulin level in athymic nude mouse xenografted with rat Rat1 cells expressing myr-p110alpha at 10 mg/kg, po qd measured upto 14 hrs by glucometer analysis; format: toxicity, organism-based; details: in vivo
Rat1 [8] = assay: Antitumor activity at rat Rat1 cells expressing myr-p110alpha xenografted in athymic nude mouse assessed as tumor growth inhibition at 40 mg/kg, po bid measured after 9 days; format: functional; details: Rat1, 216 h, time 9 day
[9] = biological target: Serine/threonine-protein kinase mTOR (Mus musculus, UniProt Q9JLN9); assay: Inhibition of mTOR in Tscl-/- null mouse MEF assessed as reduction on RPS6 phosphorylation at Ser235/236 residue by alpha-screen assay; format: cell-based
[10] = Inhibition of PI3K PTEN mutant in human HCC38 cells assessed as reduction in phosphorylation of AKT at Ser473 residue by Western blot analysis; format: cell-based
[11] = Tlast in athymic nude mouse xenografted with rat Rat1 cells expressing myr-p110alpha at 10 mg/kg, po measured after 8 days by LC-MS/MS analysis; format: ADME, organism-based; details: in vivo, 192 h, time 8 day
[12] = Effect on plasma insulin level in athymic nude mouse xenografted with rat Rat1 cells expressing myr-p110alpha at 20 mg/kg, po qd measured for 1 to 10 hrs by glucometer analysis; format: toxicity, organism-based; details: in vivo, time 1-10 hrs
[13] = Volume of distribution at steady state in Sprague-Dawley rat at 3 mg/kg, po or iv measured upto 24 hrs by LC-MS/MS analysis; format: ADME, organism-based; details: in vivo
Rat1 [14] = assay: Antitumor activity at rat Rat1 cells expressing myr-p110alpha xenografted in athymic nude mouse assessed as T/C ratio at 10 mg/kg, po qd measured after 14 to 22 days; format: functional; details: time 14-22 day
[15] = Apparent permeability across basolateral to apical side in human Caco-2 cells at 10 uM measured after 120 mins by LC-MS/MS analysis; format: ADME, cell-based
[16] = Cmax in athymic nude mouse xenografted with rat Rat1 cells expressing myr-p110alpha at 40 mg/kg, po measured after 8 days by LC-MS/MS analysis; format: ADME, organism-based; set-up: dose 40 mg/kg, time 8 day, route po; details: in vivo
[17] = Effect on blood glucose level in athymic nude mouse xenografted with rat Rat1 cells expressing myr-p110alpha at 20 mg/kg, po bid measured upto 14 hrs by glucometer analysis; format: toxicity, organism-based; details: in vivo
[18] = Dose normalized AUC in OF1 mouse plasma at 10 mg/kg, po measured upto 24 hrs by LC-MS/MS analysis; format: ADME, organism-based; details: in vivo
[19] = Drug concentration in OF1 mouse brain at 1 mg/kg, iv measured at 5 mins post dose by LC-MS/MS analysis; format: ADME, organism-based; details: in vivo
[20] = Stability in human liver microsomes assessed as hepatic extraction preincubated for 3 mins followed by NADPH addition and measured after 60 mins; format: ADME, Microsome; details: read-out: ERH
cells = details: Homo sapiens, U-87 MG, 16 h
[21] = Antitumor activity at patient derived human HBRX2524 xenografted in athymic nude mouse assessed as T/C ratio at 40 mg/kg, po qd measured upto 16 days; format: functional; details: time <= 16 day
Rat1 [22] = assay: Antitumor activity at rat Rat1 cells expressing myr-p110alpha xenografted in athymic nude mouse assessed as tumor growth inhibition at 20 mg/kg, po bid measured after 9 days; format: functional; details: Rat1, 216 h, time 9 day
[23] = Solubility of compound in simulated gastric fluid at pH 2 measured upto 30 mins by HPLC analysis; format: physicochemical
[24] = Oral bioavailability in Sprague-Dawley rat at 3 mg/kg measured for 0.25 to 24 hrs by LC-MS/MS analysis; format: ADME, organism-based; details: in vivo, time 0.25-24 hrs
[25] = Volume of distribution at steady state in OF1 mouse at 10 mg/kg,po or 3 mg/kg,iv measured upto 24 hrs by LC-MS/MS analysis; format: ADME, organism-based; details: in vivo
[26] = Dose normalized Cmax in Sprague-Dawley rat at 30 mg/kg, po measured upto 24 hrs by LC-MS/MS analysis; format: ADME, organism-based; details: in vivo
[27] = Plasma protein binding in OF1 mouse plasma at 10 mg/kg,po or 3 mg/kg,iv measured after 4 hrs by rapid equilibrium dialysis method; format: ADME, organism-based; details: read-out: PPB (converted)
[28] = In vivo Inhibition of AKT phosphorylation at Ser473 residue in athymic nude mouse xenografted with rat Rat1-myr-p110alpha cells at 3 mg/kg, po qd measured after 1 hr; format: functional
[29] = Dose normalized AUC in Sprague-Dawley rat at 3 mg/kg, po measured upto 24 hrs by LC-MS/MS analysis; format: ADME, organism-based; details: in vivo
Rat1 [30] = assay: Antitumor activity at rat Rat1 cells expressing myr-p110alpha xenografted in athymic nude mouse assessed as T/C ratio at 20 mg/kg, po bid measured after 15 to 24 days; format: functional; details: time 15-24 day
[31] = Dose normalized AUC in beagle dog at 0.1 mg/kg, iv measured upto 24 hrs by LC-MS/MS analysis; format: ADME, organism-based, Canis lupus familiaris; details: in vivo
[32] = Dose normalized AUC in Sprague-Dawley rat at 30 mg/kg, po measured upto 24 hrs by LC-MS/MS analysis; format: ADME, organism-based; details: in vivo
[33] = Oral bioavailability in Sprague-Dawley rat at 21.5 mg/kg using hydroxypropyl methylcellulose amorphous solid dispersion form of sample; format: ADME, organism-based; details: in vivo
[34] = Oral bioavailability in Sprague-Dawley rat at 20 mg/kg using crystalline form of sample; format: ADME, organism-based; details: in vivo
[35] = Clast in athymic nude mouse xenografted with rat Rat1 cells expressing myr-p110alpha at 20 mg/kg, po measured after 8 days by LC-MS/MS analysis; format: ADME, organism-based; details: in vivo, time 8 day, read-out: Clast
[36] = AUCinfinity in Beagle dog at 5.4 mg/kg, po measured upto 24 hrs using PVP-ASD form of sample by LC-MS/MS analysis; format: ADME, organism-based, Canis lupus familiaris; set-up: time < 24 hrs, dose 5.4 mg/kg, route po; details: in vivo
[37] = Dose normalized AUC in beagle dog at 0.3 mg/kg, po measured upto 24 hrs by LC-MS/MS analysis; format: ADME, organism-based, Canis lupus familiaris; details: in vivo
[38] = Inhibition of wild type PI3K in human CAL-85-1 cells assessed as reduction in phosphorylation of AKT at Ser473 residue by Western blot analysis; format: cell-based

Chain of Tubulin (Sus scrofa) (P02550 whole entry, looked up): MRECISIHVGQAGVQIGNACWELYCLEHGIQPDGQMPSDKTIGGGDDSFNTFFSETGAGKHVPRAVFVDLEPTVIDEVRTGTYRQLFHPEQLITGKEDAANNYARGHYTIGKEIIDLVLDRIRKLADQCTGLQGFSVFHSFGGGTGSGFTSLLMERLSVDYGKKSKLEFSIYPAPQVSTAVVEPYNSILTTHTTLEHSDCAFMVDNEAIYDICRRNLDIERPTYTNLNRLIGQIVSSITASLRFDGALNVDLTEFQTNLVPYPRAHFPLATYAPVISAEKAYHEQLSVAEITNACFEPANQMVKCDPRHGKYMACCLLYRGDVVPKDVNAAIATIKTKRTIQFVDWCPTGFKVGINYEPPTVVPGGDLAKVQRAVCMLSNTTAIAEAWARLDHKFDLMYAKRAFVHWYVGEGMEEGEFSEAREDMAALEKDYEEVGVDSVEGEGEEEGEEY
Chain of Tubulin (Sus scrofa) (P02554 whole entry, looked up): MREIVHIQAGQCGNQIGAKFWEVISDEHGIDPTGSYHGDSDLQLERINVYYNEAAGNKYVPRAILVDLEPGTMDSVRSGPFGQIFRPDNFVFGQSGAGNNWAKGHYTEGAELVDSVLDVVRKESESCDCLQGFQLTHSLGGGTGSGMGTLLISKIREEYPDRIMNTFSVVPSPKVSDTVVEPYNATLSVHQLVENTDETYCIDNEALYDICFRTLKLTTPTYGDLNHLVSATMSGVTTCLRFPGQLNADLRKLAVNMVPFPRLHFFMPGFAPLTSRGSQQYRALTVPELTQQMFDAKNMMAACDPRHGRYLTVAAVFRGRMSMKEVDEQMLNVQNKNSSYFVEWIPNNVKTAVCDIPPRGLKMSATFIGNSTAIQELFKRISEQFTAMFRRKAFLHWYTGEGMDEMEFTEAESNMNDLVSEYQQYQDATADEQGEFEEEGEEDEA

- Cmax/dose [1]: 0.022 µM
- half-life [2]: 11 h
- pIC50 [3]: 6.69
- solubility at 2 h [4]: 31 µM (≈ 14.1 µg/mL)
- inhibition (Tubulin (Sus scrofa)): Active
- concentration at 5 min [5]: 3.04 µM
- Tmax [6]: 24 h
- pIC50 [9]: 5.79
- pIC50 [10]: 7.06
- Tlast [11]: 14 h
- Vdss [13]: 4.4 L/kg
- Papp B→A at 2 h, 10 µM [15]: 190 nm/s
- Cmax [16]: 8.95 µM
- AUC/dose [18]: 1738 nM·h
- Ct [19]: 67 pmol/g
- hepatic extraction ratio at 1 h [20]: 0.37
- pIC50 (cells): 7.00
- solubility at 0.5 h [23]: 64 µM (≈ 29.1 µg/mL)
- bioavailability [24]: 97%
- Vdss [25]: 2 L/kg
- Cmax/dose [26]: 0.041 µM
- fraction unbound at 4 h [27]: 0.24
- AUC/dose [29]: 1709 nM·h
- AUC/dose [31]: 11213 nM·h
- AUC/dose [32]: 913 nM·h
- bioavailability [33]: 100%
- bioavailability [34]: 20%
- concentration at 192 h [35]: 0.11 µM
- AUC(0-inf) [36]: 152 µM·h
- AUC/dose [37]: 12970 nM·h
- pIC50 [38]: 7.52
Compound: C[C@H]1OC(=O)N(c2nc(-c3cnc(N)nc3C(F)(F)F)cc(N3CCOCC3)n2)[C@H]1CO
- Activity [7]: Toxic
- inhibition in vivo at 40 mg/kg (Rat1 [8]): > 80%
- Activity [12]: Toxic
- T/C (Rat1 [14]): 0.14
- Activity [17]: Non-Toxic
- T/C [21]: -0.2
- inhibition in vivo at 20 mg/kg (Rat1 [22]): > 80%
- inhibition in vivo at 3 mg/kg [28]: 80%
- T/C (Rat1 [30]): -0.8

Source: ChEMBL document CHEMBL5137017, “Identification of NVP-CLR457 as an Orally Bioavailable Non-CNS-Penetrant pan-Class IA Phosphoinositol-3-Kinase Inhibitor” (J Med Chem, 2022)
